ChEMBL document CHEMBL1145199, “Design, synthesis, and SAR of a novel pyrazinone series with non-nucleoside HIV-1 reverse transcriptase inhibitory activity” (J Med Chem, 2005)
pIC50: −log10 of the molar value.

Columns and labels:
Type in all cases: functional, organism-based
[1] = tested on: Human immunodeficiency virus 1; assay: Inhibitory concentration against wild-type HIV-1 LAI Virus was determined; settings: for pIC50: Human immunodeficiency virus 1, read-out: IC50
[2] = tested on: Human immunodeficiency virus 1; assay: Inhibitory concentration against 188L mutant was determined; settings: for pIC50: Human immunodeficiency virus 1, read-out: IC50
[3] = tested on: Human immunodeficiency virus 1; assay: Inhibitory concentration against 181C mutant was determined; settings: for pIC50: Human immunodeficiency virus 1, read-out: IC50
[4] = tested on: Human immunodeficiency virus 1; assay: Inhibitory concentration against 103N mutant was determined; settings: for pIC50: Human immunodeficiency virus 1, read-out: IC50
[5] = tested on: Human immunodeficiency virus 1; assay: Inhibitory concentration against 100I mutant was determined; settings: for pIC50: Human immunodeficiency virus 1, read-out: IC50
[6] = tested on: Human immunodeficiency virus 1; assay: Inhibitory concentration against 103N and 181C mutant was determined
[7] = tested on: Human immunodeficiency virus 1; assay: Inhibitory concentration against 100I and 103N mutant was determined
[8] = tested on: Human immunodeficiency virus 1; assay: Inhibitory concentration against 103N and 181C mutant strains was determined
[9] = tested on: Human immunodeficiency virus 1; assay: Inhibitory concentration against 100I and 103N mutant strains was determined
[10] = tested on: Human immunodeficiency virus 1; assay: Inhibitory concentration against 188L mutant strain was determined

| SMILES | pIC50 [2] | pIC50 [3] | pIC50 [1] | pIC50 [4] | pIC50 [5] | further results |
| --- | --- | --- | --- | --- | --- | --- |
| Cc1ccc(Oc2cn(C)c(=O)c(Nc3ccccc3)n2)c(C)c1 |  |  |  |  |  | IC50 [1]: 0.251 µmol |
| Cc1ccc(Oc2cn(C)c(=O)c(Nc3ccc(C#N)cc3)n2)c(C)c1 | 6.40 | 6.80 | > 9.00 | 7.49 | 6.50 |  |
| Cc1cc(C)c(Sc2cn(C)c(=O)c(Nc3ccc(C#N)cc3)n2)c(C)c1 | 6.20 | 6.00 | 7.80 | 6.20 | < 5.00 |  |
| Cc1cc(C)c(Oc2nc(Nc3ccc(C#N)cc3)c(=O)n(C)c2C)c(C)c1 | < 6.70 | < 6.30 | 8.30 | < 6.80 | < 7.30 |  |
| Cc1ccccc1Oc1cn(C)c(=O)c(Nc2ccc(C#N)cc2)n1 | 5.70 | 5.60 | 8.40 | 6.10 | 5.90 |  |
| Cc1cc(C)c(Sc2cn(C)c(=O)c(Nc3ccc(Cl)cc3)n2)c(C)c1 | 5.00 | 5.20 | 7.10 | < 5.00 | < 5.00 |  |
| Cc1ccc(Oc2nc(Nc3ccc(C#N)cc3)c(=O)n(C)c2C)c(C)c1 | 6.80 | 7.20 | 8.52 | 7.49 | 7.60 | pIC50 [6]: 6.00; pIC50 [7]: 6.80 |
| Cc1cc(C#N)cc(C)c1Oc1nc(Nc2ccc(C#N)cc2)c(=O)n(C)c1C |  | 7.60 | 8.22 |  |  | pIC50 [6]: 7.20; pIC50 [7]: 6.80 |
| Cc1ccc(Oc2cn(C)c(=O)c(Nc3ccc(Cl)cc3)n2)c(C)c1 | < 5.00 | 5.30 | 7.60 | 5.30 | 5.30 |  |
| Cc1ccc(Oc2cn(C)c(=O)c(Nc3ccc(F)cc3)n2)c(C)c1 |  |  |  |  |  | IC50 [2]: > 10 µmol; IC50 [3]: > 10 µmol; IC50 [1]: 1.258 µmol; IC50 [4]: > 10 µmol; IC50 [5]: > 10 µmol |
| Cc1ccc(Sc2cn(C)c(=O)c(Nc3ccc(C#N)cc3)n2)c(C)c1 | < 5.00 | < 5.00 | 8.30 | < 5.00 | < 5.00 |  |
| Cc1ccc(Oc2cn(C)c(=O)c(Nc3ccc(C(F)(F)F)cc3)n2)c(C)c1 |  |  | 6.30 |  |  |  |
| Cc1ccc(Sc2nc(Nc3ccc(Cl)cc3)c(=O)n(C)c2C)c(C)c1 |  |  | 6.30 |  |  |  |
| Cc1ccccc1Sc1nc(Nc2ccc(C#N)cc2)c(=O)n(C)c1C | < 5.00 | < 5.00 | 7.40 | < 5.00 | < 5.00 |  |
| O=C1Nc2ccc(Cl)cc2[C@@](C#CC2CC2)(C(F)(F)F)O1 [EFAVIRENZ] |  | 8.70 |  | 7.40 | 7.40 | pIC50 [8]: 7.40; pIC50 [9]: < 5.00 |
| Cc1ccccc1Oc1nc(Nc2ccc(Cl)cc2)c(=O)n(C)c1C | < 5.00 | < 5.00 | 7.00 | < 5.00 | 5.30 |  |
| Cc1cc(C)c(S(=O)(=O)c2cn(C)c(=O)c(Nc3ccc(C#N)cc3)n2)c(C)c1 | < 5.00 | 6.40 | 8.10 | < 5.00 | < 5.00 |  |
| Cc1ccccc1Sc1cn(C)c(=O)c(Nc2ccc(C#N)cc2)n1 | < 5.00 | < 5.00 | 7.70 | < 5.00 | < 5.00 |  |
| Cc1ccccc1Oc1nc(Nc2ccc(C#N)cc2)c(=O)n(C)c1C | 5.60 | 5.60 | 8.30 | 6.40 | 6.40 |  |
| Cc1ccccc1Sc1nc(Nc2ccc(C#N)cc2)c(O)nc1C | 6.20 | 5.30 | 7.40 | 6.20 | 5.30 |  |
| Cc1ccc(Oc2cn(Cc3ccccc3)c(=O)c(Nc3ccc(C#N)cc3)n2)c(C)c1 | < 5.00 | 5.80 | 7.49 | 6.20 | 6.20 |  |
| Cc1ccc(Nc2nc(Oc3ccc(C)cc3C)cn(C)c2=O)cc1 |  |  |  |  |  | IC50 [1]: > 100 µmol |
| Cc1cc(C)c(S(=O)(=O)c2nc(Nc3ccc(C#N)cc3)c(=O)n(C)c2C)c(C)c1 |  | 7.20 | 8.52 | 6.49 | 7.60 | pIC50 [10]: 6.80 |
| Cc1ccc(Oc2nc(Nc3ccc(Cl)cc3)c(=O)n(C)c2C)c(C)c1 | < 5.00 | < 5.00 | 6.90 | 5.40 | 5.40 |  |
| Cc1ccccc1Oc1cn(Cc2ccccc2)c(=O)c(Nc2ccc(C#N)cc2)n1 |  |  | 6.50 |  |  |  |
